These molecules were tested on Phytophthora infestans. Conditions: young tomato plants, sprayed, active ingredient concentration 100 ppm, inoculated 1 day after treatment, evaluation 7 days after inoculation; 100% = no infection.
Type: in vivo

Row | Structure (SMILES) | Eff. %
1 | Cc1ccc(S(=O)(=O)Oc2ccccc2C2(C)CC(c3csc(C4CCN(C(=O)Cn5nc(C(F)F)cc5C)CC4)n3)=NO2)cc1 (stereo not drawn) [Example I-49] | 94%
2 | CCON=Cc1cccc(C2CC(c3csc(C4CCN(C(=O)Cn5nc(C(F)F)cc5C(F)F)CC4)n3)=NO2)c1 (mixture of isomers) [Example I-24] | 100%
3 | Cc1ccc(Cl)cc1NC(=O)N1CCC(c2nc(C3=NOC(c4cccc(C=NOC(C)C)c4)C3)cs2)CC1 (stereo not drawn) [Example I-13] | 100%
4 | CCON=Cc1cccc(C2CC(c3csc(C4CCN(C(=O)Nc5cc(Cl)ccc5C)CC4)n3)=NO2)c1 (mixture of isomers) [Example I-12] | 95%
5 | CCS(=O)(=O)Oc1cccc(C2CC(c3csc(C4CCN(C(=O)Cn5nc(C(F)(F)F)cc5C)CC4)n3)=NO2)c1 (stereo not drawn) [Example I-99] | 100%
6 | CCNC(=O)Oc1ccccc1C1CC(c2csc(C3CCN(C(=O)Cn4nc(C(F)F)cc4C(F)F)CC3)n2)=NO1 (stereo not drawn) [Example I-136] | 93%
7 | C=CCOCc1ccccc1C1CC(c2csc(C3CCN(C(=O)Cn4nc(C(F)(F)F)cc4C)CC3)n2)=NO1 (stereo not drawn) [Example I-93] | 95%
8 | CC(=NOC(C)C)c1cccc(C2CC(c3csc(C4CCN(C(=O)Cn5nc(C(F)(F)F)cc5C)CC4)n3)=NO2)c1 (mixture of isomers) [Example I-9] | 100%
9 | CC(=NOC(C)C)c1ccccc1C1CC(c2csc(C3CCN(C(=O)Cn4nc(C(F)(F)F)cc4C)CC3)n2)=NO1 (mixture of isomers) [Example I-30] | 100%
10 | Cc1ccc(C)c(NC(=O)N2CCC(c3nc(C4=NOC(c5c(Cl)cccc5OS(C)(=O)=O)C4)cs3)CC2)c1 (stereo not drawn) [Example I-52] | 94%
11 | C=CCOCc1ccccc1C1CC(c2csc(C3CCN(C(=O)Cn4nc(C(F)F)cc4C(F)F)CC3)n2)=NO1 (stereo not drawn) [Example I-94] | 100%
12 | CCON=Cc1ccccc1C1CC(c2csc(C3CCN(C(=O)Nc4cc(Cl)ccc4C)CC3)n2)=NO1 (mixture of isomers) [Example I-33] | 100%
13 | Cc1cc(C(F)(F)F)nn1CC(=O)N1CCC(c2nc(C3=NOC(c4ccc(OS(=O)(=O)C5CC5)cc4)C3)cs2)CC1 (stereo not drawn) [Example I-98] | 95%
14 | Cc1cc(C(F)(F)F)nn1CC(=O)N1CCC(c2nc(C3=NOC(c4cccc(OCC#N)c4)C3)cs2)CC1 (stereo not drawn) [Example I-95] | 100%
15 | CS(=O)(=O)Oc1ccc(F)c(C2CC(c3csc(C4CCN(C(=O)Cn5nc(C(F)F)cc5C(F)F)CC4)n3)=NO2)c1F (stereo not drawn) [Example I-50] | 94%
16 | CC(C)ON=Cc1ccccc1C1CC(c2csc(C3CCN(C(=O)Cn4nc(C(F)F)cc4C(F)F)CC3)n2)=NO1 (mixture of isomers) [Example I-42] | 100%
17 | N#CCOc1cc(Cl)ccc1C1CC(c2csc(C3CCN(C(=O)Cn4nc(C(F)F)cc4C(F)F)CC3)n2)=NO1 (stereo not drawn) [Example I-71] | 100%
18 | CS(=O)(=O)Oc1cc(Cl)ccc1C1CC(c2csc(C3CCN(C(=O)Cn4nc(C(F)F)cc4C(F)F)CC3)n2)=NO1 (stereo not drawn) [Example I-70] | 97%
19 | CCS(=O)(=O)Oc1ccc(C2CC(c3csc(C4CCN(C(=O)Cn5nc(C(F)(F)F)cc5C)CC4)n3)=NO2)cc1 (stereo not drawn) [Example I-97] | 95%
20 | Cc1cc(C(F)(F)F)nn1CC(=O)N1CCC(c2nc(C3=NOC(c4cccc(F)c4OCC#N)C3)cs2)CC1 (stereo not drawn) [Example I-111] | 98%
21 | Cc1ccc(Cl)cc1NC(=O)N1CCC(c2nc(C3=NOC(c4ccccc4C=NOC(C)C)C3)cs2)CC1 (mixture of isomers) [Example I-37] | 100%
22 | Cc1cc(C(F)(F)F)nn1CC(=O)N1CCC(c2nc(C3=NOC(c4cccc(OS(=O)(=O)C5CC5)c4)C3)cs2)CC1 (stereo not drawn) [Example I-101] | 100%
23 | CC(=NOC(C)C)c1ccccc1C1CC(c2csc(C3CCN(C(=O)Cn4nc(C(F)F)cc4C(F)F)CC3)n2)=NO1 (mixture of isomers) [Example I-28] | 100%
24 | COCCSCc1ccccc1C1CC(c2csc(C3CCN(C(=O)Cn4nc(C(F)F)cc4C(F)F)CC3)n2)=NO1 (stereo not drawn) [Example I-100] | 100%

Source: patent US10499641B2 (priority 2010, dated 2019)
